Measured values from patent US8530388B2, “Cyclopentadione derived herbicides” (Syngenta Limited, priority 2009, dated 2013).

Tests used:
Assay type in all cases: in vivo
Lolium perenne (LOLPE) [1] = experiment: Post-emergence herbicidal activity, glasshouse pot test; settings: 312 h, rate 250 g/ha, evaluated after 13 days, read-out: Post-emergence activity, LOLPE (100=total damage to plant; 0=no damage to plant)
Experimental: (§1) Seeds of a variety of test species were sown in standard soil in pots. After cultivation for one day (pre-emergence) or after 8 days cultivation (post-emergence) under controlled conditions in a glasshouse (at 24/16° C., day/night; 14 hours light; 65% humidity), the plants were sprayed with an aqueous spray solution derived from the formulation of the technical active ingredient in acetone/water (50:50) solution containing 0.5% Tween 20 (polyoxyethelyene sorbitan monolaurate, CAS RN 9005-64-5). The test plants were then grown in a glasshouse under controlled conditions in a glasshouse (at 24/16° C., day/night; 14 hours light; 65% humidity) and watered twice daily. After 13 days for pre and post-emergence, the test was evaluated (100=total damage to plant; 0=no damage to plant).
(§2) Test plants: Setaria faberi (SETFA), Lolium perenne (LOLPE), Alopecurus myosuroides (ALOMY), Echinochloa crus-galli (ECHCG), and Avena fatua (AVEFA)

[2] = tested on: Echinochloa crus-galli (ECHCG); experiment: as above; settings: 312 h, rate 250 g/ha, evaluated after 13 days, read-out: Post-emergence activity, ECHCG (100=total damage to plant; 0=no damage to plant)
Experimental: as §1, §2

Avena fatua (AVEFA) [3] = experiment: as above; settings: 312 h, rate 250 g/ha, evaluated after 13 days, read-out: Post-emergence activity, AVEFA (100=total damage to plant; 0=no damage to plant)
Experimental: as §1, §2

[4] = tested on: Alopecurus myosuroides (ALOMY); experiment: as above; settings: 312 h, rate 250 g/ha, evaluated after 13 days, read-out: Post-emergence activity, ALOMY (100=total damage to plant; 0=no damage to plant)
Experimental: as §1, §2

Lolium perenne (LOLPE) [5] = experiment: Pre-emergence herbicidal activity, glasshouse pot test; settings: 312 h, Rate 250 g/ha, sprayed one day after sowing, evaluated after 13 days, 100=total damage to plant, 0=no damage to plant
Experimental: as §1, with “plant). Test plants: Setaria faberi (SETFA), Lolium perenne (LOLPE), Alopecurus myosuroides (ALOMY), Echinochloa crus-galli (ECHCG), and Avena fatua (AVEFA) Pre-Emergence Activity” for “plant).”

[6] = tested on: Echinochloa crus-galli (ECHCG); experiment: as above; settings: 312 h, Rate 250 g/ha, sprayed one day after sowing, evaluated after 13 days, 100=total damage to plant, 0=no damage to plant
Experimental: as §1, with “plant). Test plants: Setaria faberi (SETFA), Lolium perenne (LOLPE), Alopecurus myosuroides (ALOMY), Echinochloa crus-galli (ECHCG), and Avena fatua (AVEFA) Pre-Emergence Activity” for “plant).”

Avena fatua (AVEFA) [7] = experiment: as above; settings: 312 h, Rate 250 g/ha, sprayed one day after sowing, evaluated after 13 days, 100=total damage to plant, 0=no damage to plant
Experimental: as §1, with “plant). Test plants: Setaria faberi (SETFA), Lolium perenne (LOLPE), Alopecurus myosuroides (ALOMY), Echinochloa crus-galli (ECHCG), and Avena fatua (AVEFA) Pre-Emergence Activity” for “plant).”

[8] = tested on: Alopecurus myosuroides (ALOMY); experiment: as above; settings: 312 h, Rate 250 g/ha, sprayed one day after sowing, evaluated after 13 days, 100=total damage to plant, 0=no damage to plant
Experimental: as §1, with “plant). Test plants: Setaria faberi (SETFA), Lolium perenne (LOLPE), Alopecurus myosuroides (ALOMY), Echinochloa crus-galli (ECHCG), and Avena fatua (AVEFA) Pre-Emergence Activity” for “plant).”

Which results are given for CCc1ccc(-c2c(F)cc(Cl)cc2F)cc1C1=C(O)CCC1=O [Compound T-10]?
pest or weed control at 250 g/ha (Lolium perenne (LOLPE) [1]): 40%; pest or weed control at 250 g/ha [2]: 90%; pest or weed control at 250 g/ha (Avena fatua (AVEFA) [3]): 50%; pest or weed control at 250 g/ha [4]: 30%; pest or weed control at 250 g/ha (Lolium perenne (LOLPE) [5]): 0%; pest or weed control at 250 g/ha [6]: 0%; pest or weed control at 250 g/ha (Avena fatua (AVEFA) [7]): 0%; pest or weed control at 250 g/ha [8]: 0%

For CCc1ccc(-c2ccc(Cl)c(C(F)(F)F)c2)cc1C1=C(O)CCC1=O [Compound T-8], which pest or weed control at 250 g/ha (Lolium perenne (LOLPE) [1]) is on record?
The pest or weed control at 250 g/ha was 60%.

What about the pest or weed control at 250 g/ha [2] of the same molecule?
The pest or weed control at 250 g/ha was 100%.

And the pest or weed control at 250 g/ha (Avena fatua (AVEFA) [3])?
The pest or weed control at 250 g/ha was 30%.

What about the pest or weed control at 250 g/ha [4] of the same molecule?
The pest or weed control at 250 g/ha was 50%.

What about the pest or weed control at 250 g/ha (Lolium perenne (LOLPE) [5]) of the same molecule?
The pest or weed control at 250 g/ha was 60%.

And the pest or weed control at 250 g/ha [6]?
The pest or weed control at 250 g/ha was 60%.

What about the pest or weed control at 250 g/ha (Avena fatua (AVEFA) [7]) of the same molecule?
The pest or weed control at 250 g/ha was 0%.

And the pest or weed control at 250 g/ha [8]?
Its pest or weed control at 250 g/ha is 30%.

What does the source list for CCc1ccc(-c2ccc(Cl)c(Cl)c2)cc1C1=C(O)CCC1=O [Compound T-5]?
pest or weed control at 250 g/ha (Lolium perenne (LOLPE) [1]): 50%; pest or weed control at 250 g/ha [2]: 70%; pest or weed control at 250 g/ha (Avena fatua (AVEFA) [3]): 20%; pest or weed control at 250 g/ha [4]: 30%; pest or weed control at 250 g/ha (Lolium perenne (LOLPE) [5]): 20%; pest or weed control at 250 g/ha [6]: 20%; pest or weed control at 250 g/ha (Avena fatua (AVEFA) [7]): 0%; pest or weed control at 250 g/ha [8]: 20%
